Measured values published in the NIST ThermoML archive (doi:10.1021/je060411g).

Test: molar heat capacity at constant pressure
Conditions: 101.33 kPa

CCCC(C)O (stereo unspecified) [pentan-2-ol]
Conditions	molar heat capacity at constant pressure [J/K/mol]
79.67 K, Glass	63.18
80.46 K, Glass	63.33
82.3 K, Glass	64.14
84.42 K, Glass	67.58
85.14 K, Glass	66.47
85.32 K, Glass	67.84
86.75 K, Glass	68.64
87.94 K, Glass	69.06
88.7 K, Glass	70.03
90.63 K, Glass	71.1
90.73 K, Glass	70.94
92.44 K, Glass	69.53
92.56 K, Glass	72.26
93.14 K, Glass	65.87
93.54 K, Glass	72.61
94.47 K, Glass	69.28
94.5 K, Glass	73.35
95.82 K, Glass	74.84
96.37 K, Glass	74.28
96.39 K, Glass	69.82
96.44 K, Glass	74.4
96.51 K, Glass	73.84
97.85 K, Glass	74.9
98.3 K, Glass	70.93
98.39 K, Glass	75.87
99.21 K, Glass	76.42
99.81 K, Glass	76.63
100.21 K, Glass	72.31
100.33 K, Glass	77.32
101.76 K, Glass	76.89
102.06 K, Glass	77.9
102.12 K, Glass	72.26
102.28 K, Glass	78.12
103.71 K, Glass	77.71
104.04 K, Glass	72.83
104.24 K, Glass	78.97
104.91 K, Glass	79.34
105.66 K, Glass	79.19
105.95 K, Glass	74.19
106.19 K, Glass	80.14
107.61 K, Glass	80.61
107.78 K, Glass	81.22
107.87 K, Glass	75.02
108.15 K, Glass	81.83
109.56 K, Glass	81.6
109.78 K, Glass	76.24
110.11 K, Glass	83.03
110.65 K, Glass	82.72
111.51 K, Glass	82.56
111.7 K, Glass	77.13
112.08 K, Glass	84.03
113.47 K, Glass	83.55
113.52 K, Glass	84.21
113.62 K, Glass	77.89
114.05 K, Glass	85.23
115.43 K, Glass	84.36
115.53 K, Glass	78.83
116.02 K, Glass	86.13
116.41 K, Glass	85.6
117.39 K, Glass	85.19
117.45 K, Glass	79.39
117.99 K, Glass	86.99
119.31 K, Glass	86.83
119.36 K, Glass	85.74
119.37 K, Glass	80.16
119.97 K, Glass	87.03
121.3 K, Glass	80.85
121.33 K, Glass	86.41
121.95 K, Glass	88.36
122.2 K, Glass	88.5
123.23 K, Glass	82.6
123.29 K, Glass	88
123.94 K, Glass	89.95
125.11 K, Glass	91.4
125.15 K, Glass	84.47
125.26 K, Glass	89.98
125.92 K, Glass	92.63
127.07 K, Glass	88.92
127.21 K, Glass	95.14
134.18 K, Liquid	138.36
134.47 K, Liquid	145.14
135.24 K, Liquid	146.4
136 K, Liquid	146.52
136.05 K, Liquid	138.34
136.39 K, Liquid	145.03
137.22 K, Liquid	146.29
137.97 K, Liquid	138.35
138.36 K, Liquid	145.17
138.84 K, Liquid	146.59
139.21 K, Liquid	146.22
139.9 K, Liquid	138.69
140.33 K, Liquid	145.48
141.2 K, Liquid	146.34
141.77 K, Liquid	146.74
141.83 K, Liquid	139.02
142.3 K, Liquid	145.81
143.19 K, Liquid	146.48
143.77 K, Liquid	139.32
144.73 K, Liquid	146.91
145.18 K, Liquid	146.45
147.18 K, Liquid	146.59
147.68 K, Liquid	147.17
149.17 K, Liquid	146.66
150.63 K, Liquid	147.42
151.16 K, Liquid	146.74
153.16 K, Liquid	146.86
153.58 K, Liquid	147.65
155.16 K, Liquid	147.04
156.54 K, Liquid	148.06
157.16 K, Liquid	147.26
159.16 K, Liquid	147.41
159.5 K, Liquid	148.35
161.15 K, Liquid	147.59
162.46 K, Liquid	148.75
163.15 K, Liquid	147.87
165.15 K, Liquid	148.07
165.42 K, Liquid	149.14
167.15 K, Liquid	148.38
168.38 K, Liquid	149.64
169.15 K, Liquid	148.62
171.15 K, Liquid	148.98
171.34 K, Liquid	150.12
173.15 K, Liquid	149.17
174.31 K, Liquid	150.62
175.15 K, Liquid	149.61
177.14 K, Liquid	150.03
177.27 K, Liquid	151.24
179.14 K, Liquid	150.37
180.22 K, Liquid	151.84
181.14 K, Liquid	150.83
183.13 K, Liquid	151.22
183.15 K, Liquid	152.41
185.13 K, Liquid	151.66
186.06 K, Liquid	153.18
187.13 K, Liquid	152.22
188.97 K, Liquid	153.85
189.12 K, Liquid	152.69
191.11 K, Liquid	153.28
191.86 K, Liquid	154.61
193.1 K, Liquid	153.79
194.73 K, Liquid	155.46
195.09 K, Liquid	154.43
197.08 K, Liquid	155.04
197.6 K, Liquid	156.28
199.07 K, Liquid	155.64
200.45 K, Liquid	157.17
201.05 K, Liquid	156.37
203.04 K, Liquid	157.14
203.28 K, Liquid	158.12
205.02 K, Liquid	157.9
206.11 K, Liquid	159.16
207 K, Liquid	158.71
208.92 K, Liquid	160.23
208.98 K, Liquid	159.59
210.96 K, Liquid	160.43
211.71 K, Liquid	161.38
212.93 K, Liquid	161.43
214.5 K, Liquid	162.6
214.9 K, Liquid	162.36
216.87 K, Liquid	163.53
217.27 K, Liquid	163.98
218.83 K, Liquid	164.58
220.03 K, Liquid	165.38
220.79 K, Liquid	165.86
222.74 K, Liquid	167.19
222.77 K, Liquid	166.74
224.69 K, Liquid	168.3
225.5 K, Liquid	168.21
226.64 K, Liquid	169.58
228.21 K, Liquid	169.75
228.58 K, Liquid	170.97
230.52 K, Liquid	172.4
230.92 K, Liquid	171.38
232.46 K, Liquid	173.26
233.61 K, Liquid	173.02
234.41 K, Liquid	174.28
236.28 K, Liquid	174.82
236.37 K, Liquid	175.25
238.35 K, Liquid	176.25
238.94 K, Liquid	176.57
240.33 K, Liquid	177.32
241.59 K, Liquid	178.24
242.31 K, Liquid	178.65
244.22 K, Liquid	179.98
244.29 K, Liquid	180.19
246.27 K, Liquid	181.71
246.84 K, Liquid	181.91
248.24 K, Liquid	183.24
249.45 K, Liquid	183.85
250.22 K, Liquid	184.81
252.04 K, Liquid	185.96
252.19 K, Liquid	186.49
254.17 K, Liquid	187.53
254.62 K, Liquid	187.26
256.15 K, Liquid	189.21
257.2 K, Liquid	189.4
258.13 K, Liquid	190.9
259.75 K, Liquid	191.63
260.11 K, Liquid	192.75
262.08 K, Liquid	194.51
262.3 K, Liquid	193.87
264.06 K, Liquid	196.4
264.83 K, Liquid	196.18
266.04 K, Liquid	198.15
267.34 K, Liquid	198.56
268.01 K, Liquid	200.17
269.84 K, Liquid	201.01
269.99 K, Liquid	202.16
271.96 K, Liquid	204.25
272.33 K, Liquid	203.73
273.94 K, Liquid	206.27
274.8 K, Liquid	206.33
275.91 K, Liquid	208.32
277.26 K, Liquid	208.61
277.88 K, Liquid	210.5
279.7 K, Liquid	211.18
279.86 K, Liquid	212.62
281.83 K, Liquid	214.76
282.13 K, Liquid	213.77
283.81 K, Liquid	216.99
284.54 K, Liquid	216.55
285.79 K, Liquid	219.38
286.94 K, Liquid	219.25
287.77 K, Liquid	221.67
289.33 K, Liquid	222.07
289.75 K, Liquid	224.09
291.7 K, Liquid	224.87
291.73 K, Liquid	226.3
293.71 K, Liquid	228.63
294.06 K, Liquid	227.43
295.69 K, Liquid	231.18
296.41 K, Liquid	230.08
297.66 K, Liquid	233.65
298.75 K, Liquid	233
299.65 K, Liquid	235.81
301.07 K, Liquid	235.62
